Experimental findings from patent US9399625B2, “Acridone compounds” (Oregon Health & Science University, priority 2006, dated 2016) are described below.

Series [1] relates to late trophozoites in PRBCs. The series is described as follows: Morphological changes in acridone treated parasites (blood smears, light microscopy). The note with it: compared to drug-free controls. From the text: This example provides morphological changes in acridone treated parasites. […] These preliminary evaluations of blood smears by light microscopy indicate that acridones cause alterations in parasite morphology and viability.

The subject of series [2] is MDR Dd2 strain of P. falciparum. The experiment in a line: In vitro antimalarial activity, SYBR Green MSF assay, Dd2. Particulars: Plasmodium falciparum. It counts as cell-based. The text has this:
(§1) This example describes the screening of disclosed antimalarial acridones against the CQ-sensitive D6 strain and the MDR Dd2 strain of P. falciparum for in vitro antimalarial activity.
As shown in Table 3 and Table 4, selected soluble acridone derivatives were screened for antimalarial activity against the CQ-sensitive D6 and the MDR Dd2 strains of P. falciparum.

Series [3] concerns murine splenic lymphocytes (MSLCs). The series is described as follows: Cytotoxicity by Alamar Blue assay. Particulars: for IVTI: ratio of cytotoxicity IC50 (vs. MSLCs) to antimalarial IC50 against D6; for IC50: cytotoxicity.
Series [4] deals with CQ-sensitive D6 strain of P. falciparum. The experiment in a line: In vitro antimalarial activity, SYBR Green MSF assay, D6. The note with it: Plasmodium falciparum. It counts as cell-based.
Description: as §1

For series [5], the system named is MDR P. falciparum Dd2. The experiment in a line: Fixed-ratio combination (isobologram) with quinoline antimalarials, Dd2. It counts as cell-based. Particulars: isobolar analysis. How it is done:
In one embodiment, synergism is assessed herein using fixed-ratio combinations that provide information over a wide range of drug concentrations. […] If these stock solutions were termed Drug A and Drug B, then six final stock solutions were prepared from this initial stock: Drug A alone, Drug B alone, and volume:volume mixtures of Drug A and B in the following ratios: 4:1, 3:2, 2:3, and 1:4. Two-fold dilutions of each of the six final stock solutions were done robotically across a 96-well plate in quadruplicate. Subsequent steps were typical of standard drug-susceptibility methods. […] The data pointed from all six curves were then analyzed using Calcusyn software (commercially available from BioSoft, Cambridge, UK) for determination of synergy. Output from this analysis included FIC values used to plot isobolograms as well as a rigorously determined synergy index, termed the combination index (CI) (Calcusyn). FIC50 isobolograms, CI's and tabulation of IC90 component drug concentrations were reported.
The combinations of the acridones T3.5 and T2 with quinine were assessed for synergism.
FIG. 6 is an isobologram charting the efficacy of quinine in combination with T3.5 in vitro against CQ-sensitive (D6) and MDR (Dd2) P. falciparum.

Series [6] addresses T1, recombinant human serotonin transporter (hSERT) (Homo sapiens, UniProt P31645).
T1 construct: expressed in transfected cells
The series is described as follows: [125I]RTI-55 binding, HEK-hSERT.

A short description of series [7]: Heme-binding affinity (spectrophotometric titration). Particulars: Table 3. From the text:
With continued reference to FIG. 1, panel B illustrates the spectrophotometric titration curve of the heme:3,6-bis-ε-(N,N-diethylamino)-amyloxy xanthone (C5) complex. The apparent binding constant was derived from the best fit (solid line) of a 1:1 (heme dimer:C5) association model. […] Panels A and B show the fluorescence localization of C5 and LysoTracker Red, respectively.

The test system of series [8] is P. yoelii. The series is described as follows: Single-dose ig efficacy after patent infection in mice. Particulars: single ig dose 100 mg/kg; HCl salt. It counts as in vivo.
Description: The single-dose efficacy of acridone compounds also was assessed in vivo using ig treatment after patent infection. Test compounds were administered as a single dose at 100 mg/kg (30 mg/kg for CQ) 24 hours after P. yoelii infection, and blood smears were collected 48 and 72 hours post-treatment.
The nature of series [9]: General toxicity in treated mice. The note with it: 256 mg/kg/day×3 days.
In series [10] the test system is CQ-sensitive P. yoelii (strain K). The series is described as follows: 4-day suppressive test in female CF-1 mice. It counts as in vivo. How it is done:
This example describes evaluation of the in vivo antimalarial efficacy of the disclosed acridones against CQ-sensitive P. yoelii (strain K) in female CF-1 mice. Illustrated in FIG. 2, are the results of a 4-day suppressive test with acridone T2 (3-(2-diethylaminoethoxy)-6-chloro-9-acridone)) in PBS administered intragastrically (ig) by gavage one hour after infection and then once daily, 24, 48 and 72 hours later.
This example describes evaluation of acridones in rodent models of blood-stage malaria.

For series [11], the system named is P. berghei (ANKA). The experiment in a line: Efficacy vs patent P. berghei infection in mice.
Series [12] has as its system P. yoelii (K). The experiment in a line: Curative efficacy vs patent infection, three once-daily doses (adapted 6-day Thompson test).
The target of series [13] is T2, recombinant human norepinephrine transporter (hNET) (Homo sapiens, UniProt P23975).
T2 construct: expressed in transfected cells
T2 sequence (P23975 whole entry): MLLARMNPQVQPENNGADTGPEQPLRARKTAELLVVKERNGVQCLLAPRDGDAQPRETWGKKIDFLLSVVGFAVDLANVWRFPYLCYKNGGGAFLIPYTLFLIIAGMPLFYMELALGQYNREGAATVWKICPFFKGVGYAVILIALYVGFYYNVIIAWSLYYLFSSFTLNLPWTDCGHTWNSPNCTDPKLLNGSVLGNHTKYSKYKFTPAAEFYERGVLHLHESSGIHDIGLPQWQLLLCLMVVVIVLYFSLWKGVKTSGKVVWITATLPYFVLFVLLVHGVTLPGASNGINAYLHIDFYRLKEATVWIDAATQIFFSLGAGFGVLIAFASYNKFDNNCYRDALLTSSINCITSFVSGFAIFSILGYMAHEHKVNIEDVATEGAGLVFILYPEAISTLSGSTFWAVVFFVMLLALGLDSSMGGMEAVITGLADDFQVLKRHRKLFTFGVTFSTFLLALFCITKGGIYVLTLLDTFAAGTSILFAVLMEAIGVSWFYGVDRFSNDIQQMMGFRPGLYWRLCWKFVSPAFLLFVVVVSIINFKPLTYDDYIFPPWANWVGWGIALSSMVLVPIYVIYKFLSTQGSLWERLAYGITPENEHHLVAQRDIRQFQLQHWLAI
The experiment in a line: [125I]RTI-55 binding, HEK-hNET.

Series [14] has as its system P. yoelii sporozoites. The experiment in a line: Prophylactic efficacy, murine sporozoite-induced malaria model. It counts as in vivo. The note with it: 160 mg/kg ig on days −1, 0 and 1. Here is the method:
This example evaluates the prophylactic efficacy of the acridone T2. T2 was evaluated in a murine P. yoelii sporozoite-induced malaria model to determine prophylactic efficacy.
Mice were treated with 160 mg/kg ig, on days −1, 0, and 1 with injection of 250,000 sporozoites on day 0.

Series [15] has as its target T3, recombinant human dopamine transporter (hDAT) (Homo sapiens, UniProt Q01959).
T3 construct: expressed in transfected cells
The series is described as follows: [125I]RTI-55 binding, HEK-hDAT.

Series [16] in a line: In vitro heme aggregation assay. The note with it: 25 mM phosphate buffer, pH 4.8, 30 minutes at room temperature. How it is done:
This example describes the in vitro inhibition of heme aggregation by xanthone 2,3,4,5,6-pentahydroxyxanthone. Conditions: 25 mM Phosphate buffer, pH 5.2, 1 hour incubation at 37° C. Further details of this assay are described by Ignatushchenko et al. in Xanthones as antimalarial agents; studies of a possible mode of action.
This example describes visual evidence that acridones disclosed herein form soluble complexes with heme under mildly acidic conditions. […] Employing the same assay conditions, heme was mixed with T2 or T3.5 under mildly acidic conditions (25 mM phosphate buffer, pH 4.8) and monitored. […] Without being limited to theory, it is believed that for some compounds inhibition of heme aggregation in vitro can be correlated with inhibition of hemozoin formation in vivo.

Series [17] concerns MDR (Dd2) strain of P. falciparum. The experiment in a line: In vitro chemosensitizing effects of acridones (RMI), Dd2. It counts as cell-based. The note with it: Plasmodium falciparum, DD2, read-out: IC50 of CQ, Dd2. The text has this: (§2) Antimalarial drug combinations can be assessed in a number of ways. For example, the response modification index (RMI) can be calculated by the following formula: RMI=IC50 of drug A in the presence of drug B/IC50 of drug A alone, where drug A is an existing antimalarial and B is a single sub-inhibitory concentration of the acridone candidate. An RMI less than 1.0 represents chemosensitization and possible synergy. A second method of evaluating combination therapies is Fractional Inhibitory Concentration, (e.g., FIC50=[IC50 of Drug A in the presence of a fixed amount of Drug B]/[IC50 of Drug A alone]). RMI and FIC are helpful measures for side-by-side comparison of multiple chemosensitizer drugs at fixed concentrations, but neither distinguishes between additive and synergistic effects, or describes effects over a wide concentration range. Standard FIC indices (FIC of Drug A+FIC of Drug B) distinguish synergistic, additive and antagonistic interactions, but are dependent on the correct estimation of the expected effect of the fixed test drug.

In series [18] the test system is CQS (D6) strain of P. falciparum. The experiment in a line: In vitro chemosensitizing effects of acridones (RMI), D6. It counts as cell-based. The note with it: Plasmodium falciparum, D6, read-out: IC50 of CQ, D6.
Description: as §2

For series [19], the system named is MDR P. falciparum strain Dd2. The series is described as follows: In vitro chemosensitization to chloroquine (RMI), strain Dd2. It counts as cell-based. The note with it: Plasmodium falciparum, DD2, read-out: IC50 of CQ in combination with 5 μM of selected drug, Dd2.
In series [20] the test system is MDR P. falciparum strain W2. The experiment in a line: In vitro chemosensitization to chloroquine (RMI), strain W2. It counts as cell-based. Particulars: Plasmodium falciparum, W2, read-out: IC50 of CQ in combination with 5 μM of selected drug, W2.
The mark [21] stands for this setting: DD2, Table 2, average of 4 independent experiments, read-out: IC50, Dd2.
The mark [22] stands for this setting: DD2, Table 3, MSF assay, read-out: IC50 P. falciparum Dd2.
Setting [23] is: D6, Table 2, average of 4 independent experiments, read-out: IC50, D6.
The mark [24] stands for this setting: D6, Table 3, MSF assay, read-out: IC50 P. falciparum D6.

Entries after “also recorded” stand apart in the source; their conditions may differ. Like-named read-outs stand apart in the source and are kept apart here.

T1 sequence (P31645 whole entry): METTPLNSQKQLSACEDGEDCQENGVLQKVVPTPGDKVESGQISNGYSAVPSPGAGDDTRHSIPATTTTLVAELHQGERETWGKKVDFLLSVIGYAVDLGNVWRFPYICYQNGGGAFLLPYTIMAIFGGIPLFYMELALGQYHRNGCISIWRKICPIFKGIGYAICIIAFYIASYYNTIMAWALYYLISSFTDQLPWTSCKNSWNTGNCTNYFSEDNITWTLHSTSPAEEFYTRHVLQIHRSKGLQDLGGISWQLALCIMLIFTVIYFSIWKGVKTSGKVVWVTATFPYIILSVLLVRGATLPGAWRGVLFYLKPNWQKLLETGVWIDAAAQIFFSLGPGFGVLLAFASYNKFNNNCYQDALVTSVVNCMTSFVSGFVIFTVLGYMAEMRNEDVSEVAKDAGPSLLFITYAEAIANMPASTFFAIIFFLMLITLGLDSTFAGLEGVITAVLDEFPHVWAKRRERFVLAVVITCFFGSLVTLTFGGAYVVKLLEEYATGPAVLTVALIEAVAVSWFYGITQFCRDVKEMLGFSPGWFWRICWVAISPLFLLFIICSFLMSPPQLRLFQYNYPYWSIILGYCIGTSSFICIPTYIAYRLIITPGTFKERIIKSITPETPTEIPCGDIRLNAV
T3 sequence (Q01959 whole entry): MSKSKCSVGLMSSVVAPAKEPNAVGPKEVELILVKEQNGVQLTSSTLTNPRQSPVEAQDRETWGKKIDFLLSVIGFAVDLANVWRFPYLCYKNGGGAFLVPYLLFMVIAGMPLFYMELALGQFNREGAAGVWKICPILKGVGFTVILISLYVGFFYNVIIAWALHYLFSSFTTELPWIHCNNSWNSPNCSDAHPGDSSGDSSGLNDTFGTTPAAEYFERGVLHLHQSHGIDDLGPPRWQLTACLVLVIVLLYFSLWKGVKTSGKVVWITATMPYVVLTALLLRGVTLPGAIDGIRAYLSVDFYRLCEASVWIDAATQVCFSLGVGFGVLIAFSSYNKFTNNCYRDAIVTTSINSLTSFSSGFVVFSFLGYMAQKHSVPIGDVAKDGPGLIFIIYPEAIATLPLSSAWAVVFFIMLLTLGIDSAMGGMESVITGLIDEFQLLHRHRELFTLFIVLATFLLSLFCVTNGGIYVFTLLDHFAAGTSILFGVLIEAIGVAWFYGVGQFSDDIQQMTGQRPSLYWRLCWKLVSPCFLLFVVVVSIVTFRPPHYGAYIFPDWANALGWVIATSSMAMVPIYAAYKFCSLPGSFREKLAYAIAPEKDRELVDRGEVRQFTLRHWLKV

As for `CCN(CC)CCOc1ccc2c(=O)c3ccccc3[nH]c2c1` [T1, 3-(2-diethylaminoethoxy)-9-acridone], in series [1], the “appearance of treated late trophozoites” value was “pale staining with loss of intracellular definition and fragmented hemozoin”. In addition, the concentration for half-maximal inhibition (IC50) in series [2] (setting [21]) was 0.159 µM; in series [2] (setting [22]), 0.159 µM; in series [3] (read-out: IC50, MSLCs, Table 2), above 25 µM; in series [3] (read-out: IC50 MSLCs, Table 3) it was above 25 µM; in series [4] (setting [23]) it was 0.167 µM; in series [4] (setting [24]), 0.167 µM. Further, in series [3], the IVTI is above 150.

On to `CCN(CC)CCOc1ccc2c(=O)c3ccc(Cl)cc3[nH]c2c1` [T2, 3-(2-diethylaminoethoxy)-6-chloro-9-acridone], for which the interaction with quinine result in series [5] was “not and no evidence of synergy”. The figures for the inhibition constant Ki in series [6], in series [13] and in series [15] were above 10 µM, 5.85 µM and above 10 µM, respectively. The “Heme-binding Ka” value in series [7] is 4.3 10^4 M^−1. In addition, in series [8], the “reduction of parasitemia at 72 hours” value is “greater than 90%”. Also, the weight loss in series [9] came out at 10%. Further, in series [10] (200 mg/kg/day), the “mice parasite-free to the end of the observation period” value is “all of the four mice in that group remained parasite-free”. The suppression of parasitemia result in series [10] (200 mg/kg/day, assessed 24 hours after the last dose) is reported as “completely suppressed parasitemia; also recorded: complete suppression”. Also, the ED50 was found to be 27.1 mg/kg in series [10] (Plasmodium yoelii, po, 96 h, ig by gavage, once daily, 4 days) and 55 mg/kg/day in series [11] (patent P. berghei (ANKA) infection, by gavage). Moreover, the ED90 in series [10] (ig by gavage, once daily, 4 days) worked out at 42 mg/kg; in series [11] (P. berghei (ANKA)), 80 mg/kg/day. For the same molecule, the “long-term outcome (parasitemia at 30 days, cure)” value in [12] (256 mg/kg/day) is on record as “long-term cure”. Besides, the “ED50 and ED90, gavage (ig) dosing, in words” value in series [12] (ig, three once-daily doses) is “comparable”. In [12] (ip once daily for three days), the “ED50 (ip)” value is given as 38 mg/kg/day. The “ED90 (ip)” value in [12] (ip once daily for three days) is 66 mg/kg/day. The IC50 is 0.017 µM in series [2] (setting [21]); 0.033 µM in series [2] (setting [22]); above 25 µM in series [3] (read-out: IC50, MSLCs, Table 2); above 25 µM in series [3] (read-out: IC50 MSLCs, Table 3); 0.018 µM in series [4] (setting [23]); 0.026 µM in [4] (setting [24]). The toxicity entry in [14] is on record as “No toxicity was observed”. Moreover, the “treated animals parasite-free on days 6, 11 and 14” value in [14] is “all 5 treated animals to be parasite-free”. Besides, the “cytotoxicity at the highest tested concentration” value in series [3] (25 μM) is reported as “no evidence of cytotoxicity”. Further, in series [3], the IVTI is reported as above 1389. The “formation of heme aggregates” value in [16] was “prevent the formation of heme aggregates”.

As for `CCN(CC)CCCC(C)Nc1ccnc2cc(Cl)ccc12` (centres unmarked) [Chloroquine, reference compound], the IC50 stood at 0.124 µM in series [17]; 0.0084 µM in series [18]; 0.1 µM in series [19]; 0.132 µM in [2] (DD2, read-out: IC50, Dd2); 0.124 µM in [2] (DD2, read-out: IC50 P. falciparum Dd2); 0.29 µM in [20]. For the same molecule, the IC50 in series [4] (D6, read-out: IC50, D6) amounted to 0.0068 µM; in [4] (D6, read-out: IC50 P. falciparum D6), 0.0084 µM; in [4] (D6, read-out: IC50 of CQ, CQ-sensitive strain D6), 0.015 µM. The “Heme-binding Ka” value in [7] is 5.5 10^4 M^−1. Moreover, the “formation of heme aggregates” value in series [16] is listed as “fails to prevent heme aggregation”.
